Results published in the NIST ThermoML archive (doi:10.1016/j.tca.2004.11.015).

Test: xn = mol fraction of the nth substance listed
Conditions: 101.33 kPa, Liquid, Vibrating tube method

NCCO [2-aminoethan-1-ol] + CO
mass density [kg/m3]
Conditions | 283.15 K | 288.15 K | 293.15 K | 298.15 K
x1 = 0.012 | 805.83 | 801.17 | 796.49 | 791.8
x1 = 0.031 | 813.82 | 809.2 | 804.57 | 799.92
x1 = 0.05 | 821.45 | 816.86 | 812.26 | 807.64
x1 = 0.1 | 840.61 | 836.11 | 831.59 | 827.05
x1 = 0.15 | 858.27 | 853.79 | 849.33 | 844.86
x1 = 0.2002 | 874.67 | 870.3 | 865.9 | 861.49
x1 = 0.2501 | 889.65 | 885.33 | 880.98 | 876.62
x1 = 0.2974 | 902.94 | 898.66 | 894.35 | 890.03
x1 = 0.3502 | 916.72 | 912.48 | 908.21 | 903.94
x1 = 0.4001 | 928.53 | 924.32 | 920.09 | 915.84
x1 = 0.4427 | 938.12 | 933.94 | 929.73 | 925.51
x1 = 0.4502 | 939.89 | 935.71 | 931.52 | 927.31
x1 = 0.5002 | 950.16 | 946.01 | 941.84 | 937.66
x1 = 0.5501 | 959.78 | 955.65 | 951.5 | 947.35
x1 = 0.6001 | 968.89 | 964.79 | 960.67 | –
x1 = 0.6501 | 977.39 | 973.31 | 969.21 | –
x1 = 0.7005 | 985.59 | 981.53 | 977.45 | –
x1 = 0.7479 | 992.48 | 988.45 | 984.39 | –
x1 = 0.8002 | 1000.19 | 996.18 | 992.15 | –
x1 = 0.8502 | 1006.55 | 1002.56 | 998.55 | –
x1 = 0.8967 | 1012.63 | 1008.66 | 1004.66 | –
x1 = 0.9501 | 1018.78 | 1014.82 | 1010.85 | –
